Reference: ChEMBL document CHEMBL4507267 (2021)

How the values were obtained:
[1] = target: Muscle, skeletal receptor tyrosine-protein kinase (Homo sapiens) (UniProt O15146); details: Compound concentration 1000.0 nM
[2] = target: Cyclin-dependent kinase 4 (Homo sapiens) (UniProt P11802); details: Compound concentration 1000.0 nM
[3] = target: Ribosomal protein S6 kinase alpha-6 (Homo sapiens) (UniProt Q9UK32); details: Compound concentration 1000.0 nM
[4] = target: Mitogen-activated protein kinase kinase kinase 11 (Homo sapiens) (UniProt Q16584); details: Compound concentration 1000.0 nM
[5] = target: Mitogen-activated protein kinase kinase kinase 4 (Homo sapiens) (UniProt Q9Y6R4); details: Compound concentration 1000.0 nM
[6] = target: Serine/threonine-protein kinase TAO3 (Homo sapiens) (UniProt Q9H2K8); details: Compound concentration 1000.0 nM
[7] = target: Tyrosine-protein kinase ABL1 (Homo sapiens) (UniProt P00519); details: Compound concentration 1000.0 nM
[8] = target: MAP kinase-activated protein kinase 5 (Homo sapiens) (UniProt Q8IW41); details: Compound concentration 1000.0 nM
Sequence of MAP kinase-activated protein kinase 5 (Homo sapiens) (Q8IW41 whole entry): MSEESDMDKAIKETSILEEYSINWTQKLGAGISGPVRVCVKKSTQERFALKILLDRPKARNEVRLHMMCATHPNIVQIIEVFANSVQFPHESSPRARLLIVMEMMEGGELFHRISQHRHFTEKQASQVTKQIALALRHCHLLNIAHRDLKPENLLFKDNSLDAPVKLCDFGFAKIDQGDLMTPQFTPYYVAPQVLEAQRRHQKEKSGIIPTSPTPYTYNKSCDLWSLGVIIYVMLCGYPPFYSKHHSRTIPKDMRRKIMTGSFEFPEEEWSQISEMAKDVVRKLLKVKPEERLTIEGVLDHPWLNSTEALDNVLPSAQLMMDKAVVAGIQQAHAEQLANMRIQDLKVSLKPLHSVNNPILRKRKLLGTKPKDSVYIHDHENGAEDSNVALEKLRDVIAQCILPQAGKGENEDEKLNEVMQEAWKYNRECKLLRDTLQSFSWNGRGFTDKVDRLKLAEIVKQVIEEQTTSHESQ

[9] = target: Muscarinic acetylcholine receptor M4 (Homo sapiens) (UniProt P08173); details: Compound concentration 10.0 uM
[10] = target: Cyclin-dependent kinase 13 (Homo sapiens) (UniProt Q14004); details: Compound concentration 1000.0 nM
[11] = target: Activin receptor type-1 (Homo sapiens) (UniProt Q04771); details: Compound concentration 1000.0 nM
[12] = target: Mitogen-activated protein kinase kinase kinase 19 (Homo sapiens) (UniProt Q56UN5); details: Compound concentration 1000.0 nM
[13] = target: Ribosomal protein S6 kinase alpha-2 (Homo sapiens) (UniProt Q15349); details: Compound concentration 1000.0 nM
Sequence of Ribosomal protein S6 kinase alpha-2 (Homo sapiens) (Q15349 whole entry): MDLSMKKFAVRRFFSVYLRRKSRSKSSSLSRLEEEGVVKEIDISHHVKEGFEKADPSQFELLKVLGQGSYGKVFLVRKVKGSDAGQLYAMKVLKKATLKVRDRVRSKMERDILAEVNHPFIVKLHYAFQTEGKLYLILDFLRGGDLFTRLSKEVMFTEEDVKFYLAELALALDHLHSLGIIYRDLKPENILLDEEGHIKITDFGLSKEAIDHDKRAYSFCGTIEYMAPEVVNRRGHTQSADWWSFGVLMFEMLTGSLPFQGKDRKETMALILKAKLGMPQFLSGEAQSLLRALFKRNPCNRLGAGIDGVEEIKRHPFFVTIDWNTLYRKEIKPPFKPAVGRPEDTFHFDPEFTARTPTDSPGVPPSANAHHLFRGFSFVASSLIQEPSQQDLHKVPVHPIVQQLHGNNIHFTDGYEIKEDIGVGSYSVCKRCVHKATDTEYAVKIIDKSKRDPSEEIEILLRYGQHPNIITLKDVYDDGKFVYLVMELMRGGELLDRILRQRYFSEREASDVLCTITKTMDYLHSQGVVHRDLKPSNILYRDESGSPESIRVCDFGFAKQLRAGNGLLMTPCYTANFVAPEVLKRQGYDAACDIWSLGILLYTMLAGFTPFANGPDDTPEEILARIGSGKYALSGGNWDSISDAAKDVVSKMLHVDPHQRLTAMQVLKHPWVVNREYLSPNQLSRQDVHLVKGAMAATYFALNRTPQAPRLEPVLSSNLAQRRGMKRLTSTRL

[14] = system: Receptor-type tyrosine-protein kinase FLT3 (Homo sapiens), P36888 [UNDEFINED MUTATION]; details: Compound concentration 1000.0 nM
[15] = target: Phosphatidylinositol 3-kinase catalytic subunit type 3 (Homo sapiens) (UniProt Q8NEB9); details: Compound concentration 1000.0 nM
[16] = target: Serine/threonine-protein kinase SBK1 (Homo sapiens) (UniProt Q52WX2); details: Compound concentration 1000.0 nM
[17] = system: Tyrosine-protein kinase ABL1 (Homo sapiens), P00519 [Y253F]; details: Compound concentration 1000.0 nM
[18] = target: Ribosomal protein S6 kinase alpha-5 (Homo sapiens) (UniProt O75582); details: Compound concentration 1000.0 nM
[19] = target: Macrophage colony-stimulating factor 1 receptor (Homo sapiens) (UniProt P07333); details: Compound concentration 1000.0 nM
[20] = target: Cyclin-dependent kinase 9 (Homo sapiens) (UniProt P50750); details: Compound concentration 1000.0 nM
[21] = target: Dual specificity mitogen-activated protein kinase kinase 1 (Homo sapiens) (UniProt Q02750); details: Compound concentration 1000.0 nM
[22] = target: Ribosomal protein S6 kinase alpha-1 (Homo sapiens) (UniProt Q15418); details: Compound concentration 1000.0 nM
[23] = target: Serine/threonine-protein kinase WNK1 (Homo sapiens) (UniProt Q9H4A3); details: Compound concentration 1000.0 nM
[24] = system: Phosphatidylinositol 4,5-bisphosphate 3-kinase catalytic subunit alpha isoform (Homo sapiens), P42336 [E545A]; details: Compound concentration 1000.0 nM
Sequence of Phosphatidylinositol 4,5-bisphosphate 3-kinase catalytic subunit alpha isoform (Homo sapiens), P42336 [E545A] (P42336 whole entry E545A, canonical isoform): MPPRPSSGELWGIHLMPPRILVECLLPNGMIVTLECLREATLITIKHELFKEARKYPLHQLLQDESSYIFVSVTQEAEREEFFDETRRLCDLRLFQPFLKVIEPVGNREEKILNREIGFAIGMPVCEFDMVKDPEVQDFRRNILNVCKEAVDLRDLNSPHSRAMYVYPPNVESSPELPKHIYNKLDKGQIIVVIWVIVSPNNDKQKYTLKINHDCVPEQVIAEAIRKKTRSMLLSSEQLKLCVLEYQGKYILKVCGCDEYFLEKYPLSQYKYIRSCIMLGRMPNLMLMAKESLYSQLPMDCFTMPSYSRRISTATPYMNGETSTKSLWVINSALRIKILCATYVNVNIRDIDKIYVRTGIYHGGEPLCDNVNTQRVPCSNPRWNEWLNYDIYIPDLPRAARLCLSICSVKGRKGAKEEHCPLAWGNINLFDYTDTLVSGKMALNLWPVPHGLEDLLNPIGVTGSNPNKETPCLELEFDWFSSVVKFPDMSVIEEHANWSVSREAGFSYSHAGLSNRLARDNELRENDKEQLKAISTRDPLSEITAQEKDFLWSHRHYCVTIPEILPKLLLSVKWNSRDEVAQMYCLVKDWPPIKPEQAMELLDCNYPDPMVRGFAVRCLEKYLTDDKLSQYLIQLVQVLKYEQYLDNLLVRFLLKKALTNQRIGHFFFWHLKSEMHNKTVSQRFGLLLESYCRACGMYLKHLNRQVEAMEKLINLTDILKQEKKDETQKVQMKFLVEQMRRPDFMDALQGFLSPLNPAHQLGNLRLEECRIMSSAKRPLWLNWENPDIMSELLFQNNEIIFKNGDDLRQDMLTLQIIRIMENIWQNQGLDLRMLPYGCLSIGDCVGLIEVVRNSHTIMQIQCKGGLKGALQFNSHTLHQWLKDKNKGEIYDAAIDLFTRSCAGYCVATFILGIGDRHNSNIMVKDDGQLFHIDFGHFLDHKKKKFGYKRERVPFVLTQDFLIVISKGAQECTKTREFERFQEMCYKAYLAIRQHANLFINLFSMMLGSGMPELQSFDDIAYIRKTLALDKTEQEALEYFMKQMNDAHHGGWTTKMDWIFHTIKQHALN

[25] = target: Cyclin-dependent kinase 11A (Homo sapiens) (UniProt Q9UQ88); details: Compound concentration 1000.0 nM
[26] = target: Activated CDC42 kinase 1 (Homo sapiens) (UniProt Q07912); details: Compound concentration 1000.0 nM
[27] = target: Activin receptor type-2B (Homo sapiens) (UniProt Q13705); details: Compound concentration 1000.0 nM
[28] = target: Protein-tyrosine kinase 6 (Homo sapiens) (UniProt Q13882); details: Compound concentration 1000.0 nM
[29] = target: Cyclin-dependent kinase 4 (Homo sapiens) (UniProt P11802); details: Compound concentration 1000.0 nM; remark: listed apart in the source
[30] = target: Tyrosine-protein kinase CSK (Homo sapiens) (UniProt P41240); details: Compound concentration 1000.0 nM
[31] = system: Epidermal growth factor receptor (Homo sapiens), P00533 [G719C]; details: Compound concentration 1000.0 nM
[32] = target: TRAF2 and NCK-interacting protein kinase (Homo sapiens) (UniProt Q9UKE5); details: Compound concentration 1000.0 nM
[33] = target: LIM domain kinase 1 (Homo sapiens) (UniProt P53667); details: Compound concentration 1000.0 nM
[34] = target: Cyclin-dependent kinase 17 (Homo sapiens) (UniProt Q00537); details: Compound concentration 1000.0 nM
[35] = target: Ephrin type-A receptor 1 (Homo sapiens) (UniProt P21709); details: Compound concentration 1000.0 nM
[36] = system: Hepatocyte growth factor receptor (Homo sapiens), P08581 [M1250T]; details: Compound concentration 1000.0 nM
[37] = target: Cyclin-dependent kinase 3 (Homo sapiens) (UniProt Q00526); details: Compound concentration 1000.0 nM
[38] = target: Ephrin type-B receptor 4 (Homo sapiens) (UniProt P54760); details: Compound concentration 1000.0 nM
[39] = target: Tyrosine-protein kinase ITK/TSK (Homo sapiens) (UniProt Q08881); details: Compound concentration 1000.0 nM
[40] = target: Calcium/calmodulin-dependent protein kinase type II subunit alpha (Homo sapiens) (UniProt Q9UQM7); details: Compound concentration 1000.0 nM
[41] = system: ALK tyrosine kinase receptor (Homo sapiens), Q9UM73 [L1196M]; details: Compound concentration 1000.0 nM
[42] = target: Serine/threonine-protein kinase ULK2 (Homo sapiens) (UniProt Q8IYT8); details: Compound concentration 1000.0 nM
[43] = target: Kappa-type opioid receptor (Homo sapiens) (UniProt P41145); details: Compound concentration 10.0 uM
Sequence of Kappa-type opioid receptor (Homo sapiens) (P41145 whole entry): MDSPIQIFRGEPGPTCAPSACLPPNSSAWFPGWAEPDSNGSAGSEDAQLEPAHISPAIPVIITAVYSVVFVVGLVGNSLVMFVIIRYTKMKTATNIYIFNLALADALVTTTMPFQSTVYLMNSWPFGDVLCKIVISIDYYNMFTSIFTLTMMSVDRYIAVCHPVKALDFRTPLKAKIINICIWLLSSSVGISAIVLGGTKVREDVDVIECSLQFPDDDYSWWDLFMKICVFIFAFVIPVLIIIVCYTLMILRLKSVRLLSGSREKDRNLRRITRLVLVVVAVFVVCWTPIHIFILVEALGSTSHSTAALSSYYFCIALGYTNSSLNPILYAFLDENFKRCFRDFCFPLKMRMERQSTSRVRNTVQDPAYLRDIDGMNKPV

[44] = target: RAC-beta serine/threonine-protein kinase (Homo sapiens) (UniProt P31751); details: Compound concentration 1000.0 nM
Sequence of RAC-beta serine/threonine-protein kinase (Homo sapiens) (P31751 whole entry): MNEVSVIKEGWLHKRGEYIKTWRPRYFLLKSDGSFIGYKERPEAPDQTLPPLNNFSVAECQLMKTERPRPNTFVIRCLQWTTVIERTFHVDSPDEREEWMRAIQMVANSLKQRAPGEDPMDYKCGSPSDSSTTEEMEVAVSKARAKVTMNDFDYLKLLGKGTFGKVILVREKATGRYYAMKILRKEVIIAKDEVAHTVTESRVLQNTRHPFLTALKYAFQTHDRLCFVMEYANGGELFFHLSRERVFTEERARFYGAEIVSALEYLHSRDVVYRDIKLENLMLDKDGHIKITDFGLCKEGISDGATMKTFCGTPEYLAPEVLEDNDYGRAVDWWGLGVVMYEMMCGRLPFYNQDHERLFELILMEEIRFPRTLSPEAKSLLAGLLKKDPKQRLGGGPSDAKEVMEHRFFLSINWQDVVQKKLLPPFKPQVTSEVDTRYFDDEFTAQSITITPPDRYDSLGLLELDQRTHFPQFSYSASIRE

[45] = system: Epidermal growth factor receptor (Homo sapiens), P00533 [G719S]; details: Compound concentration 1000.0 nM

Sequence of Cyclin-dependent kinase 4 (Homo sapiens) (P11802 whole entry): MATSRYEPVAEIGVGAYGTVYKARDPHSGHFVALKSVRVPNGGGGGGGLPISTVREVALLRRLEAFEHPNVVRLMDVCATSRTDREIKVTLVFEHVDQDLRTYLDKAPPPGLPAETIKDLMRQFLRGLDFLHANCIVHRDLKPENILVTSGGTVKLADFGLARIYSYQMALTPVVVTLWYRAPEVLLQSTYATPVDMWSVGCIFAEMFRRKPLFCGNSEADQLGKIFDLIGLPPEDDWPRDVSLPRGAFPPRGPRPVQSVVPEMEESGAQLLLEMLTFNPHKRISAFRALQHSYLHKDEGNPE
Sequence of Muscle, skeletal receptor tyrosine-protein kinase (Homo sapiens) (O15146 whole entry): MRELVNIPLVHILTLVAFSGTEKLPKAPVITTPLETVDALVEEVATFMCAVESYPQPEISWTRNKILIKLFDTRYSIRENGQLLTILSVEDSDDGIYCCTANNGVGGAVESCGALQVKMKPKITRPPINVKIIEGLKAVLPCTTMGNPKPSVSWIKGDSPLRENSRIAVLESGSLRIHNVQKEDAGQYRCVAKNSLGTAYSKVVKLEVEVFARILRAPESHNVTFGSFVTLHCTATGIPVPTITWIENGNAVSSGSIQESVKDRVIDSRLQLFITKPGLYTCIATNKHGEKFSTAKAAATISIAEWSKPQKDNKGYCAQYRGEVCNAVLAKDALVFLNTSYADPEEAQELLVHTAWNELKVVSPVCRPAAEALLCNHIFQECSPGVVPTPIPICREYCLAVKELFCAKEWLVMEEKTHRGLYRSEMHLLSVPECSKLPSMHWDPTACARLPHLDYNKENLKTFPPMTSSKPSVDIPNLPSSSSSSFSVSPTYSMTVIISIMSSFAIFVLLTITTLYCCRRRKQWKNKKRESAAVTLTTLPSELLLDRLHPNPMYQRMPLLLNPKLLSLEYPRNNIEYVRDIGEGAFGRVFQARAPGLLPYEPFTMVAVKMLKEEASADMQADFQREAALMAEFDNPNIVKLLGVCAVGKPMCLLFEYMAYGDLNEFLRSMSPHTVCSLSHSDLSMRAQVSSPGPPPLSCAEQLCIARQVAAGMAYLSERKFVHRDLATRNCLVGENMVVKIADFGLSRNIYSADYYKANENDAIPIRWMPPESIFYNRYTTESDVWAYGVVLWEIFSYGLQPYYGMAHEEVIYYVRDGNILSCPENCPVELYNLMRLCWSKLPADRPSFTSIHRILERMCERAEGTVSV
Sequence of Ribosomal protein S6 kinase alpha-6 (Homo sapiens) (Q9UK32 whole entry): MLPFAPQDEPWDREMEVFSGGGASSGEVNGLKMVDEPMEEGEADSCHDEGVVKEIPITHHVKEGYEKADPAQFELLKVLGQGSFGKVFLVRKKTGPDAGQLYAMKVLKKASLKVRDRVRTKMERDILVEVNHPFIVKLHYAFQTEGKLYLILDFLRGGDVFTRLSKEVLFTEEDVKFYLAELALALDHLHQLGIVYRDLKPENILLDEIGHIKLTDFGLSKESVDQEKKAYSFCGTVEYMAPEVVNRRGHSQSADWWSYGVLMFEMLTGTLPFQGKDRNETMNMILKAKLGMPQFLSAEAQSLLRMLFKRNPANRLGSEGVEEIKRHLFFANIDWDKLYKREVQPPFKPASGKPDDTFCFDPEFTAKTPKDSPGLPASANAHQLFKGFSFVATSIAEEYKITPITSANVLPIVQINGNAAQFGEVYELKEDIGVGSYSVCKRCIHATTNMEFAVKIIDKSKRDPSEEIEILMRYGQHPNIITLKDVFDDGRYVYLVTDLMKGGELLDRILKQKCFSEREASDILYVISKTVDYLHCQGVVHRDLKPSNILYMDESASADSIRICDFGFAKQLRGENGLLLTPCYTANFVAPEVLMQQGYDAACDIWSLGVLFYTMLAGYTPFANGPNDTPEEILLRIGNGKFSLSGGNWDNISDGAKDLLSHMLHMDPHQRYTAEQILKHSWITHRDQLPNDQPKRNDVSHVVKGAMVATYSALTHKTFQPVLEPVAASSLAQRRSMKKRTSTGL

Cc1c(NC(=O)c2cc(C(N)=O)nc3cc(F)ccc23)c(C(F)(F)F)nn1Cc1ccc(C#N)cc1 [BAY-876]
residual activity [1]: 95% | residual activity [2]: 87% | residual activity [3]: 78% | residual activity [4]: 100% | residual activity [5]: 97% | residual activity [6]: 79% | residual activity [7]: 84% | residual activity [8]: 84% | inhibition [9]: -4.15% | residual activity [10]: 87% | residual activity [11]: 87% | residual activity [12]: 72% | residual activity [13]: 86% | residual activity [14]: 95% | residual activity [15]: 99% | residual activity [16]: 75% | residual activity [17]: 80% | residual activity [18]: 100% | residual activity [19]: 100% | residual activity [20]: 86% | residual activity [21]: 90% | residual activity [22]: 78% | residual activity [23]: 80% | residual activity [24]: 81% | residual activity [25]: 100% | residual activity [26]: 71% | residual activity [27]: 93% | residual activity [28]: 100% | residual activity [29]: 81% | residual activity [30]: 100% | residual activity [31]: 83% | residual activity [32]: 92% | residual activity [33]: 78% | residual activity [34]: 92% | residual activity [35]: 74% | residual activity [36]: 91% | residual activity [37]: 95% | residual activity [38]: 100% | residual activity [39]: 78% | residual activity [40]: 100% | residual activity [41]: 83% | residual activity [42]: 81% | inhibition [43]: -6.9% | residual activity [44]: 98% | residual activity [45]: 86%

Cc1c(NC(=O)c2cc(C(N)=O)nc3cc(F)ccc23)c(C(F)(F)F)nn1Cc1ccc(C(C)(C)C)cc1 [BAY-588]
residual activity [1]: 97% | residual activity [2]: 100% | residual activity [3]: 100% | residual activity [4]: 100% | residual activity [5]: 100% | residual activity [6]: 45% | residual activity [7]: 96% | residual activity [8]: 87% | inhibition [9]: 8.69% | residual activity [10]: 100% | residual activity [11]: 100% | residual activity [12]: 85% | residual activity [13]: 100% | residual activity [14]: 100% | residual activity [15]: 100% | residual activity [16]: 100% | residual activity [17]: 100% | residual activity [18]: 89% | residual activity [19]: 100% | residual activity [20]: 100% | residual activity [21]: 91% | residual activity [22]: 100% | residual activity [23]: 100% | residual activity [24]: 100% | residual activity [25]: 94% | residual activity [26]: 100% | residual activity [27]: 100% | residual activity [28]: 100% | residual activity [29]: 100% | residual activity [30]: 94% | residual activity [31]: 71% | residual activity [32]: 98% | residual activity [33]: 100% | residual activity [34]: 100% | residual activity [35]: 96% | residual activity [36]: 88% | residual activity [37]: 100% | residual activity [38]: 100% | residual activity [39]: 95% | residual activity [40]: 89% | residual activity [41]: 83% | residual activity [42]: 100% | inhibition [43]: 22.1% | residual activity [44]: 98% | residual activity [45]: 78%
